In brackets after ≈: the same amount, converted by molar mass. Read-outs that look alike come from different tables or passages of the source.
Assays:
[1] = system: M2 ion channel; details: influenza A; cited from earlier work
[2] = system: A/NWS H1N1; test: Antiviral plaque assay, A/NWS H1N1; details: MDCK cells
Experimental: (§1) The in vitro anti-influenza activities of COMPOUND A, COMPOUND B, COMPOUND C and amantadine were evaluated using a standard plaque assay such as described in Hayden et al., Antimicrob. Agents Chemother., vol. 17, pages 865-870, (1980), herein incorporated by reference. In this assay, influenza virus-infected Madin Darby canine kidney (MDCK) cells were untreated or treated with serial dilutions of each compound. The concentration of compound required to inhibit viral plaque formation by 50% (IC50) was determined from the linear regression line of the plot of compound concentration versus percent inhibition of plaque formation. In addition, the IC50 can be determined by the method of Reed and Muench, Am. J. Hyg, vol. 27, 493-497 (1938) which is herein incorporated by reference.

[3] = system: B/Maryland; test: Antiviral plaque assay, B/Maryland; format: cell-based; details: Influenza B virus, MDCK cells
Experimental: as §1

[4] = system: influenza A/Kawasaki (A/KAW H1N1); test: Antiviral plaque assay, A/KAW H1N1; details: MDCK cells
Experimental: as §1

[5] = system: A/FM/1/47 H1N1; test: Antiviral plaque assay, A/FM/1/47 H1N1; details: MDCK cells
Experimental: as §1

[6] = system: B/Lee; test: Antiviral plaque assay, B/Lee; format: cell-based; details: Influenza B virus, MDCK cells
Experimental: as §1

[7] = system: B/GL; test: Antiviral plaque assay, B/GL; format: cell-based; details: Influenza B virus, MDCK cells
Experimental: as §1

[8] = system: A/AICHI H3N2; test: Antiviral plaque assay, A/AICHI H3N2; details: MDCK cells
Experimental: as §1

[9] = system: A/AA H2N2; test: microbe, parasite or virus in culture; details: H2N2, MDCK
[10] = system: HA of A/WSN/33
[11] = system: infectious virions; design: species or system influenza virus
[12] = system: HA of A/Kawasaki/86
[13] = system: influenza A/WSN/33
[14] = system: BVDV; test: microbe, parasite or virus in culture; format: cell-based, bovine diarrheal virus (BVDV); details: Bovine viral diarrhea virus isolates and strains, MDBK, in Bos taurus
[15] = in vitro; details: bovine, mdbk cells
[16] = read-out: IC50 (virus replication inhibited by 50%)

SMILES | IC50 [2] | IC50 [3] | IC50 [4] | IC50 [5] | IC50 [6] | IC50 [7] | IC50 [8] | IC50 [9] | IC50 ([14]; read-out: IC50) | IC50 [14, 16] | CC50 [15] | other results
NC12CC3CC(CC(C3)C1)C2 [Amantadine, amantadine, reference compound] | > 10 µg/mL | > 10 µg/mL | 0.036 µg/mL (≈ 0.238 µM) | 0.13 µg/mL (≈ 0.859 µM) | > 10 µg/mL | > 10 µg/mL | 0.076 µg/mL (≈ 0.502 µM) | 0.037 µg/mL (≈ 0.245 µM) |  |  |  | function of the M2 ion channel activity [1]: inhibiting the function of the M2 ion channel activity
COC(=O)[C@@]1(C)CCC[C@]2(C)c3cc(OC)ccc3C(=O)C[C@@H]12 [COMPOUND A] | > 10 µg/mL | ~2.7 µg/mL (≈ 8.53 µM) | < 0.032 µg/mL | < 0.032 µg/mL | ~1.23 µg/mL (≈ 3.89 µM) | 5.65 µg/mL (≈ 17.9 µM) | ~10 µg/mL (≈ 31.6 µM) | < 0.032 µg/mL | 13.5 µg/mL (≈ 42.6 µM) | 3.56 µg/mL (≈ 11.3 µM) | 51.8 µg/mL (≈ 164 µM) | effect on fusion of human erythrocytes with A/WSN/33-infected MDCK cells [10]: no effect; antiviral activity after pre-incubation with infectious virions [11]: inactive; effect on expression of HA on the infected cell surface (erythrocyte binding) [12]: no effect; low pH-induced fusion of MDCK cells with human erythrocytes ([12]; pH 4.8): inhibition of the low pH-induced fusion; susceptibility of A/WSN/33 [13]: naturally resistant; IC50 ([14]; read-out: concentration inhibiting replication by 50%): 3.5 µg/mL (≈ 11.1 µM); IC90 ([14]; read-out: concentration inhibiting replication by 90%): 13.4 µg/mL (≈ 42.4 µM)
O=C(NCC(c1ccccc1)c1ccncc1)Nc1ccccc1Cl (centres unmarked) [COMPOUND B] | ~9.59 µg/mL (≈ 27.3 µM) | ~2.23 µg/mL (≈ 6.34 µM) | 0.024 µg/mL (≈ 0.0682 µM) | 0.18 µg/mL (≈ 0.512 µM) | ~1.08 µg/mL (≈ 3.07 µM) | 2.83 µg/mL (≈ 8.04 µM) | ~7.26 µg/mL (≈ 20.6 µM) | 0.15 µg/mL (≈ 0.426 µM) |  |  |  | 
O=C(O)CCC1(c2ccccc2)CCCCC1 [COMPOUND C] | > 10 µg/mL | 6.34 µg/mL (≈ 27.3 µM) | 0.07 µg/mL (≈ 0.301 µM) | 0.15 µg/mL (≈ 0.646 µM) | > 10 µg/mL | > 10 µg/mL | ~10 µg/mL (≈ 43 µM) | 0.069 µg/mL (≈ 0.297 µM) |  |  |  | 
COC(=O)C1(C)CCCC2(C)c3ccc(O)cc3C(=O)CC12 (centres unmarked) [Compound I] |  |  |  |  |  |  |  |  | 16 µg/mL (≈ 53 µM) | 4.94 µg/mL (≈ 16.3 µM) | 32 µg/mL (≈ 106 µM) | 
COC(=O)[C@@]1(C)CCC[C@@]2(C)C1=CC(=NO)c1ccc(OC)cc12 [J] |  |  |  |  |  |  |  |  | 8.9 µg/mL (≈ 27 µM) | 5.25 µg/mL (≈ 15.9 µM) | 30.8 µg/mL (≈ 93.4 µM) | 
COC(=O)C1(C)CCCC2(C)c3ccccc3C(=O)CC12 (centres unmarked) [K] |  |  |  |  |  |  |  |  | 51 µg/mL (≈ 178 µM) | 15 µg/mL (≈ 52.3 µM) | > 100 µg/mL | 
CC(N)C12CC3CC(CC(C3)C1)C2 (centres unmarked) [rimantadine] |  |  |  |  |  |  |  |  |  |  |  | function of the M2 ion channel activity [1]: inhibiting the function of the M2 ion channel activity

Source: patent publication US6037348A (priority 1997, dated 2000)
